Measured values as given in article PMC3917699, “Glucoamylase of Caulobacter crescentus CB15: cloning and expression in Escherichia coli and functional identification” (AMB Express, 2014).

Biological target: T1, CauloGA (Protein A-CauloGA fusion) (Caulobacter vibrioides, UniProt Q9A613)
T1 construct: gene CC_2282; putative signal peptide removed; N-terminal Staphylococcus Protein A (synthetic ZZ domain) fusion kept; pEZZ18, E. coli HB101; IgG Sepharose; fusion 96 kDa, CauloGA about 82 kDa
Assay: initial rate, glucose release (F-kit D-glucose), nonlinear regression
Format: biochemical
Conditions: apparent substrate inhibition constant
Source text: initial rate, glucose release (F-kit D-glucose), nonlinear regression on CauloGA (Protein A-CauloGA fusion)

T1 sequence (Q9A613 entry or part of it): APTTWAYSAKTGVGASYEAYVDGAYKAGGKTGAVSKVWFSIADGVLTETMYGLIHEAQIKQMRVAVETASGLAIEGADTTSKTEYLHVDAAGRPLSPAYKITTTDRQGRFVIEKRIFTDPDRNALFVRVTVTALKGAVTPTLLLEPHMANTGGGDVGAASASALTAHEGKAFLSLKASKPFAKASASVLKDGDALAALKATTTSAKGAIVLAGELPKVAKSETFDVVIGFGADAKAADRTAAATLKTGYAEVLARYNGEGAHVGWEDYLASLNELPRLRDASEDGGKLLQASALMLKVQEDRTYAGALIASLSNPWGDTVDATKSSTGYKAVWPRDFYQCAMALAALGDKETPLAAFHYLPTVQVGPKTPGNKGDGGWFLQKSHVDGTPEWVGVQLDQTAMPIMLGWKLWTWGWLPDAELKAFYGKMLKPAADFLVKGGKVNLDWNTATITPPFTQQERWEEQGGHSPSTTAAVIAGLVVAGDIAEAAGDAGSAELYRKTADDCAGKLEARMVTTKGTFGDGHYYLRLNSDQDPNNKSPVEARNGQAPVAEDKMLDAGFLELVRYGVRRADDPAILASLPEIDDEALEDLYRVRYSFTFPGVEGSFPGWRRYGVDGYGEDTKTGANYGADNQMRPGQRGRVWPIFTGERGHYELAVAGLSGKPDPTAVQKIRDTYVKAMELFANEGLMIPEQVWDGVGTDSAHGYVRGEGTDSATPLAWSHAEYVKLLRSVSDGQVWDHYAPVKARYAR

Structure (SMILES) | Ki^b (0-9 mM substrate, pH 5.0, 30°C) | other results
OC[C@H]1O[C@H](O[C@H]2[C@H](O)[C@@H](O)[C@@H](O[C@H]3[C@H](O)[C@@H](O)[C@@H](O[C@H]4[C@H](O)[C@@H](O)[C@@H](O[C@H]5[C@H](O)[C@@H](O)[C@@H](O[C@H]6[C@H](O)[C@@H](O)C(O)O[C@@H]6CO)O[C@@H]5CO)O[C@@H]4CO)O[C@@H]3CO)O[C@@H]2CO)[C@H](O)[C@@H](O)[C@@H]1O (stereo partly drawn) [Maltohexaose] | 1050 ± 80 µM | 
OC[C@H]1O[C@H](O[C@H]2[C@H](O)[C@@H](O)[C@@H](O[C@H]3[C@H](O)[C@@H](O)C(O)O[C@@H]3CO)O[C@@H]2CO)[C@H](O)[C@@H](O)[C@@H]1O (stereo partly drawn) [Maltotriose] |  | Ki^b (0-18 mM substrate, pH 5.0, 30°C, text b46 prints approximately 4.2 mM): 4490 ± 310 µM
OC[C@H]1O[C@H](O[C@H]2[C@H](O)[C@@H](O)[C@@H](O[C@H]3[C@H](O)[C@@H](O)[C@@H](O[C@H]4[C@H](O)[C@@H](O)[C@@H](O[C@H]5[C@H](O)[C@@H](O)C(O)O[C@@H]5CO)O[C@@H]4CO)O[C@@H]3CO)O[C@@H]2CO)[C@H](O)[C@@H](O)[C@@H]1O (stereo partly drawn) [Maltopentaose] | 920 ± 40 µM | 
OC[C@H]1O[C@H](O[C@H]2[C@H](O)[C@@H](O)[C@@H](O[C@H]3[C@H](O)[C@@H](O)[C@@H](O[C@H]4[C@H](O)[C@@H](O)[C@@H](O[C@H]5[C@H](O)[C@@H](O)[C@@H](O[C@H]6[C@H](O)[C@@H](O)[C@@H](O[C@H]7[C@H](O)[C@@H](O)C(O)O[C@@H]7CO)O[C@@H]6CO)O[C@@H]5CO)O[C@@H]4CO)O[C@@H]3CO)O[C@@H]2CO)[C@H](O)[C@@H](O)[C@@H]1O (stereo partly drawn) [Maltoheptaose] | 1250 ± 250 µM | 
OC[C@H]1O[C@H](O[C@H]2[C@H](O)[C@@H](O)[C@@H](O[C@H]3[C@H](O)[C@@H](O)[C@@H](O[C@H]4[C@H](O)[C@@H](O)C(O)O[C@@H]4CO)O[C@@H]3CO)O[C@@H]2CO)[C@H](O)[C@@H](O)[C@@H]1O (stereo partly drawn) [Maltotetraose] |  | Ki^b (0-18 mM substrate, pH 5.0, 30°C): 1100 ± 60 µM
OC[C@H]1O[C@H](O[C@H]2[C@H](O)[C@@H](O)C(O)O[C@@H]2CO)[C@H](O)[C@@H](O)[C@@H]1O (stereo partly drawn) [Maltose] |  | Ki^b (0-18 mM substrate, 50 mM acetate buffer pH 5.0, 30°C): 38200 ± 1110 µM
